One test deals with Chlorella sp. ATCC 7516. The experiment in a line: Algal efficacy testing of dry paint film (modified ASTM 5589), Chlorella. The format is cell-based. Here is the method:
(§1) These paints were then diluted with an antimicrobial free acrylic/silicone based paint and mixed to prepare targeted concentrations of antimicrobial compounds for the testing. The total biocides concentrations tested were 125, 250, 500, 1000, 2000 and 5000 ppm. After biocides addition or dilution, the paints were mixed 90 seconds with the horse power shaker (AXEL 75M3372/Agitateur SO-10MI) until uniformity was achieved. Paints containing different antimicrobial compounds at the same levels were mixed together in order to obtain the desired ratio of antimicrobial compounds. After one day, the paints were applied to Schleicher & Schuell filter paper at 280 μm wet film thickness and dried for 3 days at room temperature avoiding direct exposure to sunlight. Square discs (1.6 cm×1.6 cm) were cut out from each panel and were used as the substrate for algal efficacy tests. This sample size allowed for an agar border when the sample disc was placed into the well of the test plate.
(§2) Algal efficacy was tested according to modified ASTM 5589 which is a standard accelerated test method for determining resistance of various coatings (including paints) to algal defacement. To accommodate for high-throughput screening, this method was scaled down from petri dishes to 6-well plates. Bold Modified Basal Freshwater Nutrient Solution was used as growth medium. A single coated filter paper coupon was placed with a pair of sterile forceps at the center of the agar plug (on top) with the painted surface facing upwards. Algal inoculums were prepared by mixing equal concentrations (1×10^6 cfu/ml) and equal volumes of exponentially growing algae cultures.
(§3) Each well that contains a tested coupon was inoculated with 1750 μl of algal suspensions (1×10^6 cfu/ml) making sure that the whole surface (paint film as well as the agar surrounding it) was evenly covered. […]
(§4) At the end of the three week incubation period, the samples were scored for percent inhibition regarding visible algal growth compared to the blank sample (0% inhibition).
(§5) The SI is calculated based on F. C. […]

In test [1] the test system is Stichococcus bacillaris SAG 379-1a / CCAP 379/1a. As to the kind of experiment: Algal efficacy testing of dry paint film (modified ASTM 5589), Stichococcus. The format is cell-based. Here is the method:
as §1, §2, §3, §4, §5

Where [2] appears, read: total active in paint, 3 weeks incubation, maximum tested conc given if pass not reached.

For orientation: inhibition means how much of the control response was suppressed. Higher therefore signals a strong effect. The % inhibition is the relative decrease from the control value, in per cent. Low readings indicate little suppression, high ones strong suppression.

As for `O=c1[nH]c2c(c(=O)n1C1CCCCC1)CCC2` [Lenacil, 3-cyclohexyl-1,5,6,7-tetrahydrocyclopentapyrimidine-2,4(3H)-dione], the inhibition at 5000 ppm with Chlorella sp. ATCC 7516 (504 h, total conc 5000 ppm, 3 weeks, visible algal growth vs blank) is 30%; in test [1] (Stichococcus bacillaris, 504 h, total conc 5000 ppm, 3 weeks, visible algal growth vs blank) it was 70%.
For the compound `[O-][n+]1ccccc1[S][Zn][S]c1cccc[n+]1[O-]` [ZnPT, bis(2-pyridylthio)zinc 1,1′-dioxide], the figures for the “Total conc (minimum inhibitory concentration chosen for SI; pass level ≧75% inhibition)” value (with Chlorella sp. ATCC 7516 (setting [2]); in test [1] (setting [2])) were 1000 ppm and 500 ppm, respectively. Besides, the “% inhibition” value was 100% in the test on Chlorella sp. ATCC 7516 (total conc 1000 ppm, 3 weeks, visible algal growth vs blank) and 75% in test [1] (total conc 500 ppm, 3 weeks, visible algal growth vs blank).
